Assay results taken from paper PMC6272192, “Synthesis and Biological Evaluation of N-Alkyl-3-(alkylamino)-pyrazine-2-carboxamides” (Molecules, 2015).
In brackets after ≈: the same amount, converted by molar mass.

Experiments:
M. tuberculosis H37Rv = assay: in vitro antimycobacterial activity, microdilution panel method; assay type: cell-based, Mycobacterium tuberculosis; conditions: Mycobacterium tuberculosis, 336 h, Middlebrook 7H9, Alamar Blue after 14 days, read-out: MIC M. tuberculosis
Staphylococcus aureus = assay: in vitro antibacterial activity, microdilution broth method; assay type: cell-based
Protocol: Microdilution broth method. Antibacterial evaluation was performed against bacterial strains from Czech Collection of Microorganisms (Brno, Czech Republic) (Staphylococcus aureus CCM 4516/08, Escherichia coli CCM 4517, Pseudomonas aeruginosa CCM 1961) or clinical isolates from Department of Clinical Microbiology, University Hospital and Faculty of Medicine in Hradec Králové, Charles University in Prague, Czech Republic (Staphylococcus aureus H 5996/08-methicilin resistant (MRSA), Staphylococcus epidermidis H 6966/08, Enterococcus sp. J 14365/08, Klebsiella pneumoniae D 11750/08, Klebsiella pneumoniae J 14368/08-ESBL positive). All strains were subcultured on Mueller-Hinton agar (MHA) (Difco/Becton Dickinson, Detroit, MI, USA) at 35 °C and maintained on the same medium at 4 °C. The compounds were dissolved in DMSO, and the antibacterial activity was determined in Mueller-Hinton liquid broth (Difco/Becton Dickinson), buffered to pH 7.0. Controls consisted of medium and DMSO alone. […] The standards were neomycin, bacitracin, penicillin G, ciprofloxacin and phenoxymethylpenicilin.

[1] = test system: photosystem 2 photosynthetic electron transport (PET) in spinach chloroplasts; assay: inhibition of photosynthetic electron transport (PET) in spinach chloroplasts (Hill reaction, DCPIP); assay type: biochemical, Spinacia oleracea L.; conditions: spinach chloroplasts, DCPIP photoreduction; read-out: IC50 (PET-inhibiting activity)
Protocol: Chloroplasts were prepared from spinach (Spinacia oleracea L.) according to Masarovicova and Kralova. The inhibition of photosynthetic electron transport (PET) in spinach chloroplasts was determined spectrophotometrically (Genesys 6, Thermo Electron Scientific Instruments, Madison, WI, USA), using an artificial electron acceptor 2,6-dichlorophenol-indophenol (DCPIP) according to Kralova et al., and the rate of photosynthetic electron transport (PET) was monitored as a photoreduction of DCPIP. The measurements were carried out in phosphate buffer (0.02 mol/L, pH 7.2) containing sucrose (0.4 mol/L), MgCl2 (0.005 mol/L) and NaCl (0.015 mol/L). The chlorophyll content was 30 mg/L in these experiments and the samples were irradiated (~100 W/m^2 with 10 cm distance) with a halogen lamp (250 W) using a 4 cm water filter to prevent warming of the samples (suspension temperature 22 °C). The studied compounds were dissolved in DMSO due to their limited water solubility. […] The inhibitory efficiency of the studied compounds was expressed by IC50 values, i.e., by molar concentration of the compounds causing 50% PET inhibition relative to the untreated control.

[2] = test system: aromatic amino acids in spinach chloroplasts; assay: fluorescence of aromatic amino acids in spinach chloroplasts; assay type: biochemical, Spinacia oleracea L.; conditions: excitation 275 nm, chlorophyll 10 mg/L
Protocol: The fluorescence emission spectra of aromatic amino acids (AAA) in spinach chloroplasts were recorded on fluorescence spectrophotometer F-2000 (Hitachi, Tokyo, Japan) using excitation wavelength λex = 275 nm for monitoring AAA fluorescence, excitation slit 20 nm and emission slit 10 nm. The samples were kept in the dark for 2 min before measuring. The phosphate buffer used for dilution of the chloroplast suspension was the same as described above. Due to low aqueous solubility the compounds were added to chloroplast suspension in DMSO solution. The DMSO concentration in all samples was the same as in the control (10%). The chlorophyll concentration in chloroplast suspension was 10 mg/L.

[3] = determination of lipophilicity by HPLC (log k); conditions: HPLC capacity factor, C18 column, MeOH 70% / H2O 30%
Excerpt: Instrumentation: Agilent Technologies 1200 SL liquid chromatograph with Diode-array Detector SL G1315C (Agilent Technologies Inc., Colorado Springs, CO, USA); pre-column ZORBAX XDB-C18 5 μm, 4 × 4 mm, Part No. 7995118-504 (Agilent Technologies Inc.) and column ZORBAX Eclipse XDB-C18 5 μm, 4.6 × 250 mm, Part No. 7995118-585 (Agilent Technologies Inc.). The separation process was controlled by Agilent ChemStation, version B.04.02 extended by spectral module (Agilent Technologies Inc.). Mobile phase consisted of MeOH (HPLC grade, 70%) and H2O (HPLC-Milli-Q Grade, 30%). Conditions: Flow rate 1.0 mL/min, sample injection volume 20 μL, column temperature 30 °C, detection wavelength 210 nm, monitor wavelength 270 nm. Retention times (tR) were measured in minutes. The dead time of the system (tD) was determined as the retention time of KI methanol solution. Capacity factors k for individual compounds were calculated according to the formula k = (tR − tD)/tD. Log k, calculated from the capacity factor k, is used as the lipophilicity index converted to log scale.

Row | Compound | MIC (M. tuberculosis H37Rv) [µg/mL] | MIC (Staphylococcus aureus) [µM] | IC50 [1] [µM] | slope of dependence of aromatic amino acid fluorescence intensity (% of control) on compound concentration [2] | log k [3]
1 | CCCCCCCCNc1nccnc1C(=O)NC [Compound 16, N-Methyl-3-(octylamino)pyrazine-2-carboxamide] | 25 (≈ 94.6 µM) | 250 (≈ 66.1 µg/mL) | 64 | −0.668 | 1.359
2 | CCCCCNC(=O)c1nccnc1NCCCCC [Compound 27, N-Pentyl-3-(pentylamino)pyrazine-2-carboxamide] | > 100 |  | 105 | −0.211 | 1.557
